Legend:
[1] = test system: acetic acid-induced writhing in mice; test: Acetic acid-induced writhing; format: in vivo, mouse
Method: Mice were acclimated to the laboratory environment for at least two hours and were habituated to the testing chamber for 30 min prior to acetic acid challenge. SBFI26, SBFI50, SBFI60, and SBFI62 (20 mg/kg) were administered via the subcutaneous route 60 min before acetic acid. Rimonabant, SR144528, GW6471, and naloxone were given 10 min before the inhibitors via the subcutaneous route. The mice subsequently received an i.p. injection of acetic acid (0.6% in sterile saline, 10 μl/g) and were placed in observation chambers. Abdominal stretches (marked by extension of the body and hind limbs) were counted for 20 min starting at 5 min post-injection.

FAAH = target: T1, FAAH (Mus musculus, UniProt O08914); test: AEA hydrolysis by brain and liver homogenates after injection of inhibitor; format: biochemical; settings: mouse brain and liver homogenates harvested 60 min after 20 mg/kg, i.p.; 30 μM [14C]AEA
T1 construct: from tissue; host or cells: mouse brain and liver homogenates
T1 sequence (O08914 1-579): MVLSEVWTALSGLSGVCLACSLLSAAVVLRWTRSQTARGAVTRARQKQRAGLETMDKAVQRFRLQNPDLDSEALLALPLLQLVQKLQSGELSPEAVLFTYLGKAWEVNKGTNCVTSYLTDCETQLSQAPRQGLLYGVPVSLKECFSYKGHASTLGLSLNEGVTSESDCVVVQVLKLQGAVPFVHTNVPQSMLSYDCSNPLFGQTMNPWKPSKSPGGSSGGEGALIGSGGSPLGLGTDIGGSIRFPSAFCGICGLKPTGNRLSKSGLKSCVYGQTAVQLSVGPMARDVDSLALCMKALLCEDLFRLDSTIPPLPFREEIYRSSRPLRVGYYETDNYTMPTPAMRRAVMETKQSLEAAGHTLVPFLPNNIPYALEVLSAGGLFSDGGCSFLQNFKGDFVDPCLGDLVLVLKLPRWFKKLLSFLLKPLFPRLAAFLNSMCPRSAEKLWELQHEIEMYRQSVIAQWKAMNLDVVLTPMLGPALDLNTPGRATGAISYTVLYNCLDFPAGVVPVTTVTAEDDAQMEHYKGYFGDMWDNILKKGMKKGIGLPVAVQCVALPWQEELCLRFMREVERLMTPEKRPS
Method: AEA and 2-OG hydrolysis was determined using modified protocols to those described previously, [35]. Mice were injected with inhibitors (20 mg/kg, i.p.) and the brains and livers were harvested 60 min later. The tissue homogenates were subsequently incubated with 30 μM [^14C]AEA or 10 μM [^3H]2-OG for 30 min. Reactions were stopped with two volumes of chloroform:methanol (1∶1) and the methanol phase was counted using a Beckman LS6500 scintillation counter.

[2] = test system: locomotor activity in mice; test: Locomotor activity; format: in vivo, mouse; settings: 20 mg/kg, i.p., measured 90 min after administration
Method: […] Locomotor activity was recorded for 5 min by a video camera suspended above the chamber and subsequently scored by an observer blinded to the treatment conditions. A grid crossing was scored when both hind legs of the animal crossed the border of each grid square.

rats subjected to CCI = test: Rat neuropathic pain model (chronic constriction injury of the sciatic nerve); format: in vivo; settings: 20 mg/kg i.p.
From the text: Male Fisher 344 rats were habituated and pre-injury evoked responses were obtained. The Hargreaves test was used to assess thermal hyperalgesia. Briefly, plexiglass enclosures were set atop a plexiglass platform and infrared source set at 50% power located under the platform was used as the heat stimulus (Ugo Basile). A 200 mW, 535 nm diode laser was mounted in an adjustable stand placed beneath the plexiglass platform, and was used as an alternative heat stimulus for some of the animals in this study. The latency time to hind paw lift during heating of the plantar surface was recorded. Five recordings were obtained on each hind paw with at least 2 min rest between measurements. The maximum time for exposure to the infrared or diode laser source was 30.5 s to avoid any possible tissue injury. For mechanical threshold measurements, the animal enclosures rested on a screen with mesh of 0.5 cm spacing. Following acclimation, an electronic von Frey Anesthesiometer (IITC Life Sciences) was applied with increasing pressure to the plantar surface of the hind paw until the animals lifted the hind paw. The number of grams of force applied by the probe to induce withdrawal was recorded. Five recordings were obtained on each hind paw with at least 3 min between measurements. For CCI surgeries, our procedure closely followed that reported previously. Briefly, each animal received an i.p. injection of ketamine/xylazine (75 mg/kg and 10 mg/kg, respectively). The hind leg was surgically prepped and the anesthetized animal placed prone on an sterile towel over a heating pad. The temperature was monitored rectally. A skin incision was made mid-thigh with a medium curved scalpel and then scissors were used to expose the sciatic nerve. Approximately 1 cm of the main trunk proximal to the trifuraction was isolated and 4 strands of 4-0 chromic gut were tied around the nerve ∼ 1 mm apart under magnification. In a modification of the original method, a 2-0 prolene strand was placed between the nerve and the gut to which the suture was tightened. The prolene strand was then removed. This prevented over tightening and reduced subsequent motor paralysis. The muscle layers were then reopposed and sutured, and surgical staples were used to close the skin. On post-injury days 7 through 10, heat and mechanical measurements were obained for the ipsilateral hindpaw of each CCI animal. Immediately following the post-injury measurements, animals were randomized and received i.p. injections of vehicle or 20 mg/kg SBI26 (DMSO:cremophor:sterile saline 1∶1∶2 by volume). Up to 0.8 ml of drug or vehicle was injected. The observer was blinded as to administration of drug or vehicle. Thermal and mechanical measurements were performed at 1 and 4 h post-injection. Data were normalized to pre-injury baseline measurements for each animal.

Inhibition of AEA hydrolysis (FAAH): did not inhibit
Locomotor activity [2]: does not alter
SMILES: O=C(O)C1C(c2ccccc2)C(C(=O)Oc2cccc3ccccc23)C1c1ccccc1 (stereo not drawn) [SBFI26, alpha-2,4-diphenylcyclobutane-1,3-dicarboxylic acid mono-1-naphthyl ester]
Effect upon acetic acid-induced writhing ([1]; 20 mg/kg, subcutaneous, 60 min before acetic acid): significantly reduced
Antinociceptive effects in the acetic acid test after pretreatment with PPARα antagonist GW6471 ([1]; GW6471 4 mg/kg): blocked
Antinociceptive effects in the acetic acid test after pretreatment with CB2 antagonist SR144528 ([1]; SR144528 3 mg/kg): failed to reverse
Dose of near maximal efficacy in acetic acid writhing ([1]; dose response analysis): 20 mg/kg
Antinociceptive effects in the acetic acid test after pretreatment with opioid antagonist naloxone ([1]; naloxone 2 mg/kg): failed to reverse
Antinociceptive effects in the acetic acid test after pretreatment with CB1 antagonist rimonabant ([1]; rimonabant 3 mg/kg 10 min before inhibitor): completely blocked
Persistence of the effect on thermal hyperalgesia in CCI rats (rats subjected to CCI): up to 4 hrs
Effect on mechanical thresholds in CCI rats (rats subjected to CCI; 1 and 4 h): Neither compound altered
Effect on thermal hyperalgesia in CCI rats (rats subjected to CCI; measured 1 and 4 h post-injection): completely reversed

— publication PMC3976407, “Inhibition of Fatty Acid Binding Proteins Elevates Brain Anandamide Levels and Produces Analgesia” (PLoS ONE, 2014)
